The values below come from PubChem BioAssay AID256 (DTP/NCI, 2004).

The assay has as its system CD2F1 mice, L1210 leukemia ip, survival T/C. Description: NCI In Vivo Anticancer Drug Screen. Data for tumor model L1210 Leukemia (intraperitoneal) in CD2F1 (CDF1) mice. Conditions: higher = longer survival. Put shortly: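 Vehicle-treated tumor-bearing mice served as controls (C) for compound-treated mice (T). Reported figure is T divided by C.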
The mark [1] stands for this setting: endpoint: mean survival time, dose: 50.0 mg/kg/injection, schedule: Q01DX009 (ip), vehicle: saline with Tween-80.
The mark [2] stands for this setting: endpoint: mean survival time, dose: 100.0 mg/kg/injection, schedule: Q01DX009 (ip), vehicle: saline with Tween-80.
Setting [3] is: endpoint: mean survival time, dose: 200.0 mg/kg/injection, schedule: Q01DX009 (ip), vehicle: saline with Tween-80.
Where [4] appears, read: endpoint: mean survival time, dose: 100.0 mg/kg/injection, schedule: Q04DX003 (ip), vehicle: saline with Tween-80.
The mark [5] stands for this setting: endpoint: mean survival time, dose: 400.0 mg/kg/injection, schedule: Q04DX003 (ip), vehicle: saline with Tween-80.
Where [6] appears, read: endpoint: mean survival time, dose: 100.0 mg/kg/injection, schedule: Q01DX001 (ip), vehicle: saline with Tween-80.
The mark [7] stands for this setting: endpoint: mean survival time, dose: 200.0 mg/kg/injection, schedule: Q01DX001 (ip), vehicle: saline with Tween-80.
Setting [8] is: endpoint: mean survival time, dose: 200.0 mg/kg/injection, schedule: Q04DX003 (ip), vehicle: saline with Tween-80.
The mark [9] stands for this setting: endpoint: mean survival time, dose: 100.0 mg/kg/injection, schedule: Q04DX002 (ip), vehicle: saline with Tween-80.
Setting [10] is: endpoint: mean survival time, dose: 200.0 mg/kg/injection, schedule: Q04DX002 (ip), vehicle: saline with Tween-80.

Each structure is given as a SMILES string. “And” between values parts separate entries of the source, which are not always exact repeats. Equal entries are not always repeated. Toxic doses and inconclusive results are not listed.

On to `C[n+]1c(/C=N/NC(N)=S)ccc2ccccc21`, for which the T/C (endpoint: mean survival time, dose: 6.25 mg/kg/injection, schedule: Q01DX009 (ip), vehicle: saline with Tween-80) was 102 % of control; the T/C (endpoint: mean survival time, dose: 12.5 mg/kg/injection, schedule: Q01DX009 (ip), vehicle: saline with Tween-80) is 106 % of control; the T/C (endpoint: mean survival time, dose: 25.0 mg/kg/injection, schedule: Q01DX009 (ip), vehicle: saline with Tween-80) was 108 % of control; the T/C under setting [1] is 100 % of control; the T/C under setting [2] is 91 % of control; the T/C under setting [3] is 94 % of control. The T/C (endpoint: median survival time, dose: 6.25 mg/kg/injection, schedule: Q01DX009 (ip), vehicle: saline with Tween-80) is 100 % of control; the T/C (endpoint: median survival time, dose: 12.5 mg/kg/injection, schedule: Q01DX009 (ip), vehicle: saline with Tween-80) is 100 % of control; the T/C (endpoint: median survival time, dose: 25.0 mg/kg/injection, schedule: Q01DX009 (ip), vehicle: saline with Tween-80) is 96 % of control; the T/C (endpoint: median survival time, dose: 50.0 mg/kg/injection, schedule: Q01DX009 (ip), vehicle: saline with Tween-80) is 96 % of control; the T/C (endpoint: median survival time, dose: 100.0 mg/kg/injection, schedule: Q01DX009 (ip), vehicle: saline with Tween-80) was 101 % of control.

In the case of `CCC(/C=C/C(C)C1CCC2C3CCC45CC4CCC5(C)C3CCC12C)C(C)C` (stereo unspecified), the T/C was 97 % of control under setting [4] and 87 % of control under setting [5].

`Cc1ccc(S(=O)(=O)N=P(c2ccccc2)(c2ccccc2)c2ccccc2)cc1`: the T/C reads like this: under setting [2], 93 % of control and 94 % of control; under setting [3], 88 % of control; (endpoint: mean survival time, dose: 400.0 mg/kg/injection, schedule: Q01DX009 (ip), vehicle: saline with Tween-80) 91 % of control and 93 % of control.

For the molecule `CC(=O)NCc1ccc2c(c1)OCO2`, the T/C by setting is: under setting [6], 98 % of control; under setting [7], 111 % of control; (endpoint: mean survival time, dose: 400.0 mg/kg/injection, schedule: Q01DX001 (ip), vehicle: saline with Tween-80) 106 % of control.

On to `[Cl][Pt+2][Cl].[NH-]C(CO)C([NH-])CO` (stereo unspecified), for which the T/C by setting is: (endpoint: median survival time, dose: 1.25 mg/kg/injection, schedule: Q04DX003 (ip), vehicle: water) 102 % of control; (endpoint: median survival time, dose: 2.5 mg/kg/injection, schedule: Q04DX003 (ip), vehicle: water) 102 % of control; (endpoint: median survival time, dose: 5.0 mg/kg/injection, schedule: Q04DX003 (ip), vehicle: water) 115 % of control; (endpoint: median survival time, dose: 12.5 mg/kg/injection, schedule: Q04DX003 (ip), vehicle: distilled water + Tween-80) 156 % of control; (endpoint: median survival time, dose: 20.0 mg/kg/injection, schedule: Q04DX003 (ip), vehicle: water) 93 % of control.

For `O=C(NNC(=O)NC1OCC(O)C(O)C1O)Nc1ccccc1` (stereo unspecified), the T/C was 101 % of control under setting [4], 98 % of control under setting [8] and 98 % of control under setting [5].

`O=c1[nH]c(=O)c2ncn(C3OC(CO)C(O)C3O)c2[nH]1.O=c1[nH]c(=O)c2ncn(C3OC(CO)C(O)C3O)c2[nH]1.[NH2-].[NH2-].[Pt+2]` (stereo unspecified): the T/C is 116 % of control (endpoint: mean survival time, dose: 6.25 mg/kg/injection, schedule: Q#A X018 (ip), vehicle: water); 106 % of control (endpoint: mean survival time, dose: 12.5 mg/kg/injection, schedule: Q04DX003 (ip), vehicle: water); 116 % of control (endpoint: mean survival time, dose: 12.5 mg/kg/injection, schedule: Q#A X018 (ip), vehicle: water); 124 % of control (endpoint: mean survival time, dose: 25.0 mg/kg/injection, schedule: Q#A X018 (ip), vehicle: water); 106 % of control (endpoint: mean survival time, dose: 50.0 mg/kg/injection, schedule: Q04DX003 (ip), vehicle: water); 111 % of control (endpoint: mean survival time, dose: 100.0 mg/kg/injection, schedule: Q04DX003 (ip), vehicle: water). The T/C by setting is: (endpoint: mean survival time, dose: 200.0 mg/kg/injection, schedule: Q04DX003 (ip), vehicle: water) 106 % of control; (endpoint: mean survival time, dose: 400.0 mg/kg/injection, schedule: Q04DX003 (ip), vehicle: water) 118 % of control.

Regarding `O=[N+]([O-])c1cc2c(c([N+](=O)[O-])c1)OCOC2`, the T/C under setting [2] was 105 % of control and the T/C under setting [3] was 96 % of control.

With `CC(C)(O)C#CC(C)(C)OC(O)C(Cl)(Cl)Cl` (stereo unspecified), the T/C by setting is: under setting [9], 96 % of control; under setting [10], 101 % of control; (endpoint: mean survival time, dose: 400.0 mg/kg/injection, schedule: Q04DX002 (ip), vehicle: saline with Tween-80) 93 % of control.

In the case of `CC(C)(C)OC(=O)NNC(c1ccccc1)c1ccccc1`, the T/C is 101 % of control under setting [2]; 98 % of control under setting [4]; 95 % of control under setting [3]; 95 % of control under setting [8]; 97 % of control under setting [5].

Turning to `O=c1[nH]ccc2sccc12`, the T/C under setting [2] is 100 % of control, the T/C under setting [4] was 96 % of control, the T/C under setting [3] was 105 % of control and the T/C under setting [5] was 103 % of control.

As for `CCOP1(=S)Nc2cc(C)c(C)cc2N1`, the T/C was 98 % of control (endpoint: mean survival time, dose: 25.0 mg/kg/injection, schedule: Q04DX002 (ip), vehicle: saline with Tween-80); 87 % of control (endpoint: mean survival time, dose: 50.0 mg/kg/injection, schedule: Q04DX002 (ip), vehicle: saline with Tween-80); 87 % of control under setting [9]; 87 % of control under setting [10].

For `C=CCCCCCCCCC(=O)NCCCN1CCOCC1`, the T/C reads like this: under setting [6], 91 % of control; under setting [7], 86 % of control.

For the molecule `CC(=O)NN1C(=O)c2ccccc2C1=O`, the T/C (endpoint: mean survival time, dose: 100.0 mg/kg/injection, schedule: Q04DX003 (ip), vehicle: Klucel (hydroxypropylcellulose) (HPC)) is 98 % of control; the T/C (endpoint: mean survival time, dose: 200.0 mg/kg/injection, schedule: Q04DX003 (ip), vehicle: Klucel (hydroxypropylcellulose) (HPC)) was 98 % of control; the T/C (endpoint: mean survival time, dose: 400.0 mg/kg/injection, schedule: Q04DX003 (ip), vehicle: Klucel (hydroxypropylcellulose) (HPC)) was 98 % of control.

As for `CN(/N=N/c1nc[nH]c1C(N)=O)C(C)(C)C`, the T/C by setting is: (endpoint: mean survival time, dose: 18.75 mg/kg/injection, schedule: Q01DX009 (ip), vehicle: Klucel (hydroxypropylcellulose) (HPC)) 96 % of control; (endpoint: mean survival time, dose: 37.5 mg/kg/injection, schedule: Q01DX009 (ip), vehicle: Klucel (hydroxypropylcellulose) (HPC)) 110 % of control; (endpoint: mean survival time, dose: 75.0 mg/kg/injection, schedule: Q01DX009 (ip), vehicle: Klucel (hydroxypropylcellulose) (HPC)) 109 % of control; (endpoint: mean survival time, dose: 150.0 mg/kg/injection, schedule: Q01DX009 (ip), vehicle: Klucel (hydroxypropylcellulose) (HPC)) 109 % of control; (endpoint: mean survival time, dose: 300.0 mg/kg/injection, schedule: Q01DX009 (ip), vehicle: Klucel (hydroxypropylcellulose) (HPC)) 103 % of control.

As for `COc1cc(OC)c(NC(=O)C(=O)Nc2cc(Cl)c(OC)cc2OC)cc1Cl`, the T/C by setting is: under setting [1], 88 % of control; under setting [2], 88 % of control; under setting [3], 91 % of control.
